Assay results from patent US20230120597A1, “CO-AGONISTS AT GLP-1 AND GIP RECEPTORS SUITABLE FOR ORAL DELIVERY” (Novo Nordisk A/S, priority 2020, published 2023).
Where two headings read alike, the source gives them in different places. Starred links: 1 amine or outer side, 2 acyl side, 3 side chain; linkers in the order of their positions; H or OH if unused. Non-standard residues stand in square brackets, D forms with d. Residues, ends and D or L forms follow the SMILES beside them. Groups on a side chain read outwards from the residue. *: point of attachment. C18 diacid = O=C(O)CCCCCCCCCCCCCCCCC(=O)*; γGlu = O=C(O)[C@H](CCC(=O)[*:2])N[*:1]; εLys = N[C@@H](CCCCN[*:1])C(=O)[*:2]; AEEA = NCCOCCOCC(=O)O; Aib = CC(C)(N)C(=O)O

How the values were obtained:
[1] = Pharmacokinetic study in dogs, oral dosing of tablet compositions with SNAC; assay type: in vivo, Beagle dogs; settings: dog, in vivo, po; for Tmax / half-life: male, beagle; for half-life: t1/2
Summary of the method: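 The tablets held 3-4 mg compound plus 100-300 mg SNAC and were given to fasted male beagles (6-8 per group); non-compartmental PK per animal.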

human GIP receptor = biological target: T1, human GIP receptor (Homo sapiens, UniProt P48546); experiment: In vitro functional potency, CRE luciferase reporter gene assay, whole BHK cells expressing hGIPR; assay type: cell-based; settings: BHK CRE luc2P hGIPR cells
T1 construct: expressed in transfected cells; host or cells: BHK (parent line BHKTS13), clone BHK CRE luc2P hGIPR
T1 sequence (P48546 22-466): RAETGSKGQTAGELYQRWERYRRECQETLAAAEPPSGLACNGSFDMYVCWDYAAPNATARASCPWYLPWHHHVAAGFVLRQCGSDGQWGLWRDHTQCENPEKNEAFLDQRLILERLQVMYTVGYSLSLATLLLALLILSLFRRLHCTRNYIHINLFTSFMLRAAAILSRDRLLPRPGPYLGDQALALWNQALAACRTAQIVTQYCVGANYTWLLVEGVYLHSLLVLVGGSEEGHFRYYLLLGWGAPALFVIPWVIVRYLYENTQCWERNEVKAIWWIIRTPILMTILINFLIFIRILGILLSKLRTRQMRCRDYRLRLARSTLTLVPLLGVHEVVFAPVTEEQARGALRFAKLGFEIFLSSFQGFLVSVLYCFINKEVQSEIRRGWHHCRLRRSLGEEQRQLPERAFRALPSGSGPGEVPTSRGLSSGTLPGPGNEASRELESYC
Protocol: (§1) The in vitro functional potency is the measure of target receptor activation in a whole cell assay.
(§2) In vitro functional potency was determined by measuring the response of the target receptor in a reporter gene assay in individual cell lines. […] When the respective receptor is activated, it results in the production of cAMP, which in turn results in expression of the luciferase protein. When assay incubation is completed, luciferase substrate (luciferin) is added resulting in the enzymatic conversion of luciferin to oxyluciferin and producing bioluminescence. The luminescence is measured as the readout for the assay.
(§3) The cells lines used in these assays were BHK cells with BHKTS13 as a parent cell line. The cell lines were derived from a clone containing the CRE luciferase element and were established by further transfection with the respective human receptor to obtain the relevant cell line: BHK CRE luc2P hGLP-1R or BHK CRE luc2P hGIPR. The cells were cultured at 37° C. with 5% CO2 in Cell Culture Medium. They were aliquoted and stored in liquid nitrogen. The cells were kept in continuous culture and were seeded out the day before each assay.
(§4) GLP-1R Cell Culture Medium consisted of DMEM medium with 10% FBS, 500 μg/mL G418, and 300 μg/mL hygromycin. GIPR Cell Culture Medium consisted of DMEM medium with 10% FBS, 400 μg/mL G418, and 300 μg/mL hygromycin. Assay Buffer consisted of DMEM w/o phenol red, 10 mM Hepes, 1× Glutamax. 1% ovalbumin, and 0.1% Pluronic F-68 with the addition of HSA at twice the final assay concentration.
(§5) Procedure • 1) Cells were plated at 5000 cells/well and incubated overnight in the assay plate. • 2) Cells were washed once in DPBS. • 3) Stocks of the test compounds and reference compounds in concentrations ranging from […] were diluted 1:150 in Assay Buffer. Compounds were then diluted 1:10 in column 1 of a 96 deep well dilution plate and then carried across the row creating a 3.5 fold, 12 point dilution curve. • 4) Assay Buffer (50 μl aliquot) with or without HSA was added to each well in the assay plate. • 5) A 50 μl aliquot of compound or blank was transferred from the dilution plate to the assay plate containing the Assay Buffer with or without HSA. • 6) The assay plate was incubated for 3 h in a 5% CO2 incubator at 37° C. • 7) The cells were washed once with DPBS. • 8) A 100 μl aliquot of DPBS was added to each well of the assay plate. • 9) A 100 μl aliquot of steadylite plus reagent (light sensitive) was added to each well of the assay plate. • 10) Each assay plate was covered with aluminum foil to protect it from light and shaken at 250 RPM for 30 min at room temperature. • 11) Each assay plate was read in a microtiter plate reader.
(§6) The data from the microtiter plate reader was first regressed in an Excel in order to calculate the x-axis, log scale concentrations based on the individual test compound's stock concentration and the dilutions of the assay. […] The software performs a non-linear regression (log(agonist) vs response). A minimum of two replicates was measured for each sample. The reported values are averages of the replicates.

human GLP-1 receptor = biological target: T2, human GLP-1 receptor (Homo sapiens, UniProt P43220); experiment: In vitro functional potency, CRE luciferase reporter gene assay, whole BHK cells expressing hGLP-1R; assay type: cell-based; settings: BHK CRE luc2P hGLP-1R cells
T2 construct: expressed in transfected cells; host or cells: BHK (parent line BHKTS13), clone BHK CRE luc2P hGLP-1R
T2 sequence (P43220 24-463): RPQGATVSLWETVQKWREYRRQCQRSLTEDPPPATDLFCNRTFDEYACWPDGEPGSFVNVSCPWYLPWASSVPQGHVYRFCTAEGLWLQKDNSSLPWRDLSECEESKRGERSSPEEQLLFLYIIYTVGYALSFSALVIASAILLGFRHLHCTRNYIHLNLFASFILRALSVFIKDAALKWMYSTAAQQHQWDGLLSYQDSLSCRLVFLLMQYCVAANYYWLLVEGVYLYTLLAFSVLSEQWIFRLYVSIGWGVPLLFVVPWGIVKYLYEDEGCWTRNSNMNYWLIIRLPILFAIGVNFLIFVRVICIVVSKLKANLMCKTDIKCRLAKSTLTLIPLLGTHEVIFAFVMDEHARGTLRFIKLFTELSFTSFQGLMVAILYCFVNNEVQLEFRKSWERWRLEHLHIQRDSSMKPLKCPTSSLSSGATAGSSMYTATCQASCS
Protocol: as §1, §2, §3, §4, §5, §6

[2] = 0% HSA, read-out: hGIPR, CRE Luc 0% HSA EC50
[3] = hGIPR, CRE Luc 1% HSA EC50, 1% HSA
[4] = 0% HSA, read-out: hGLP-1R, CRE Luc 0% HSA EC50
[5] = hGLP-1R, CRE Luc 1% HSA EC50, 1% HSA

**Q.** With `CC[C@H](C)[C@H](NC(=O)[C@H](Cc1ccccc1)NC(=O)[C@H](CCC(=O)O)NC(=O)[C@H](CCCNC(=N)N)NC(=O)[C@H](C)NC(=O)[C@H](C)NC(=O)[C@H](CCC(N)=O)NC(=O)[C@H](CCCCNC(=O)[C@@H](N)CCCCNC(=O)[C@@H](N)CCCCNC(=O)CC[C@H](NC(=O)CCCCCCCCCCCCCCCCC(=O)O)C(=O)O)NC(=O)[C@H](CCC(=O)O)NC(=O)[C@H](CC(C)C)NC(=O)[C@H](Cc1ccc(O)cc1)NC(=O)[C@@H](NC(=O)[C@H](CO)NC(=O)[C@H](Cc1ccc(O)cc1)NC(=O)[C@H](CC(=O)O)NC(=O)[C@H](CO)NC(=O)[C@@H](NC(=O)[C@H](Cc1ccccc1)NC(=O)[C@@H](NC(=O)CNC(=O)[C@H](CCC(=O)O)NC(=O)C(C)(C)NC(=O)[C@@H](N)Cc1ccc(O)cc1)[C@@H](C)O)[C@@H](C)O)[C@@H](C)CC)C(=O)N[C@@H](CCC(=O)O)C(=O)N[C@@H](Cc1c[nH]c2ccccc12)C(=O)N[C@@H](CC(C)C)C(=O)N[C@@H](CC(C)C)C(=O)N[C@@H](C)C(=O)NCC(=O)NCC(=O)N1CCC[C@H]1C(=O)N[C@@H](CO)C(=O)N[C@@H](CO)C(=O)NCC(=O)N[C@@H](C)C(=O)N1CCC[C@H]1C(=O)N1CCC[C@H]1C(=O)N1CCC[C@H]1C(=O)N[C@@H](CO)C(=O)O` [Compound No. 9] (H-Y[Aib]EGTFTSDYSIYLEK([εLys-εLys-γGlu-C18 diacid])QAAREFIEWLLAGGPSSGAPPPS-OH) as the compound, how does the AUC/Dose [1] read?
**A.** The AUC/Dose was 12.1 kg·h/L.

**Q.** And the Tmax [1]?
**A.** The Tmax was 2 h.

**Q.** And the half-life [1]?
**A.** The half-life was 50 h.

**Q.** And the EC50 (human GLP-1 receptor; [4])?
**A.** The EC50 was 0.0038 nM.

**Q.** And the EC50 (human GLP-1 receptor; [5])?
**A.** Its EC50 is 0.279 nM.

**Q.** What does the source list for `CC[C@H](C)[C@H](NC(=O)[C@H](Cc1ccccc1)NC(=O)[C@H](CCC(=O)O)NC(=O)[C@H](CCCNC(=N)N)NC(=O)[C@H](C)NC(=O)[C@H](C)NC(=O)[C@H](CCC(N)=O)NC(=O)[C@H](CCCCNC(=O)COCCOCCNC(=O)COCCOCCNC(=O)CC[C@H](NC(=O)CCCCCCCCCCCCCCCCC(=O)O)C(=O)O)NC(=O)[C@H](CCC(=O)O)NC(=O)[C@H](CC(C)C)NC(=O)[C@H](Cc1ccc(O)cc1)NC(=O)[C@@H](NC(=O)[C@H](CO)NC(=O)[C@H](Cc1ccc(O)cc1)NC(=O)[C@H](CC(=O)O)NC(=O)[C@H](CO)NC(=O)[C@@H](NC(=O)[C@H](Cc1ccccc1)NC(=O)[C@@H](NC(=O)CNC(=O)[C@H](CCC(=O)O)NC(=O)C(C)(C)NC(=O)[C@@H](N)Cc1ccc(O)cc1)[C@@H](C)O)[C@@H](C)O)[C@@H](C)CC)C(=O)N[C@@H](CCC(=O)O)C(=O)N[C@@H](Cc1c[nH]c2ccccc12)C(=O)N[C@@H](CC(C)C)C(=O)N[C@@H](CC(C)C)C(=O)N[C@@H](C)C(=O)NCC(=O)NCC(=O)N1CCC[C@H]1C(=O)N[C@@H](CO)C(=O)N[C@@H](CO)C(=O)NCC(=O)N[C@@H](C)C(=O)N1CCC[C@H]1C(=O)N1CCC[C@H]1C(=O)N1CCC[C@H]1C(=O)N[C@@H](CO)C(=O)O` [Compound No. 10] (H-Y[Aib]EGTFTSDYSIYLEK([AEEA-AEEA-γGlu-C18 diacid])QAAREFIEWLLAGGPSSGAPPPS-OH)?
**A.** AUC/Dose [1]: 8.4 kg·h/L; Tmax [1]: 1 h; half-life [1]: 36 h; EC50 (human GIP receptor; [2]): 0.0113 nM; EC50 (human GIP receptor; [3]): 1.75 nM; EC50 (human GLP-1 receptor; [4]): 0.0039 nM; EC50 (human GLP-1 receptor; [5]): 0.94 nM

**Q.** Which results are given for `CC[C@H](C)[C@H](NC(=O)[C@H](Cc1ccccc1)NC(=O)[C@H](CCC(=O)O)NC(=O)[C@H](CCCNC(=N)N)NC(=O)[C@H](C)NC(=O)[C@H](C)NC(=O)[C@H](CCC(N)=O)NC(=O)[C@H](CCCCNC(=O)[C@@H](N)CCCCNC(=O)[C@@H](N)CCCCNC(=O)CC[C@H](NC(=O)CCCCCCCCCCCCCCCCC(=O)O)C(=O)O)NC(=O)[C@H](CCC(=O)O)NC(=O)[C@H](CC(C)C)NC(=O)[C@H](Cc1ccc(O)cc1)NC(=O)[C@@H](NC(=O)[C@H](CO)NC(=O)[C@H](Cc1ccc(O)cc1)NC(=O)[C@H](CC(=O)O)NC(=O)[C@H](CO)NC(=O)[C@@H](NC(=O)[C@H](Cc1ccccc1)NC(=O)[C@@H](NC(=O)CNC(=O)[C@H](CCC(=O)O)NC(=O)C(C)(C)NC(=O)[C@@H](N)Cc1ccc(O)cc1)[C@@H](C)O)[C@@H](C)O)[C@@H](C)CC)C(=O)N[C@@H](CCC(=O)O)C(=O)N[C@@H](Cc1c[nH]c2ccccc12)C(=O)N[C@@H](CC(C)C)C(=O)N[C@@H](CC(C)C)C(=O)N[C@@H](CCCNC(=N)N)C(=O)NCC(=O)NCC(=O)N1CCC[C@H]1C(=O)N[C@@H](CO)C(=O)N[C@@H](CO)C(=O)NCC(=O)N[C@@H](C)C(=O)N1CCC[C@H]1C(=O)N1CCC[C@H]1C(=O)N1CCC[C@H]1C(=O)N[C@@H](CO)C(=O)O` [Compound No. 12] (H-Y[Aib]EGTFTSDYSIYLEK([εLys-εLys-γGlu-C18 diacid])QAAREFIEWLLRGGPSSGAPPPS-OH; N-terminus assumed)?
**A.** EC50 (human GIP receptor; [2]): 0.009 nM; EC50 (human GIP receptor; [3]): 0.0715 nM; EC50 (human GLP-1 receptor; [4]): 0.004 nM; EC50 (human GLP-1 receptor; [5]): 0.0544 nM

**Q.** Which EC50 (human GIP receptor; [2]) does the source give for `CC[C@H](C)[C@H](NC(=O)[C@H](CO)NC(=O)[C@H](Cc1ccc(O)cc1)NC(=O)[C@H](CC(=O)O)NC(=O)[C@H](CO)NC(=O)[C@@H](NC(=O)[C@H](Cc1ccccc1)NC(=O)[C@@H](NC(=O)CNC(=O)[C@H](CCC(=O)O)NC(=O)C(C)(C)NC(=O)[C@@H](N)Cc1ccc(O)cc1)[C@@H](C)O)[C@@H](C)O)C(=O)N[C@@H](C)C(=O)N[C@@H](CC(C)C)C(=O)N[C@@H](CCC(=O)O)C(=O)N[C@@H](CCCCNC(=O)[C@@H](N)CCCCNC(=O)[C@@H](N)CCCCNC(=O)CC[C@H](NC(=O)CCCCCCCCCCCCCCCCC(=O)O)C(=O)O)C(=O)N[C@@H](CCC(N)=O)C(=O)N[C@@H](C)C(=O)N[C@@H](C)C(=O)N[C@@H](CCCNC(=N)N)C(=O)N[C@@H](CCC(=O)O)C(=O)N[C@@H](Cc1ccccc1)C(=O)N[C@H](C(=O)N[C@@H](CC(N)=O)C(=O)N[C@@H](Cc1c[nH]c2ccccc12)C(=O)N[C@@H](CC(C)C)C(=O)N[C@@H](CC(C)C)C(=O)N[C@@H](C)C(=O)NCC(=O)NCC(=O)N1CCC[C@H]1C(=O)N[C@@H](CO)C(=O)N[C@@H](CO)C(=O)NCC(=O)N[C@@H](C)C(=O)N1CCC[C@H]1C(=O)N1CCC[C@H]1C(=O)N1CCC[C@H]1C(=O)N[C@@H](CO)C(=O)O)[C@@H](C)CC` [Compound No. 14] (H-Y[Aib]EGTFTSDYSIALEK([εLys-εLys-γGlu-C18 diacid])QAAREFINWLLAGGPSSGAPPPS-OH) here?
**A.** Its EC50 is 0.0116 nM.

**Q.** And the EC50 (human GIP receptor; [3])?
**A.** The EC50 was 0.58 nM.

**Q.** What about the EC50 (human GLP-1 receptor; [4]) of the same compound?
**A.** The EC50 was 0.0054 nM.

**Q.** What about the EC50 (human GLP-1 receptor; [5]) of the same compound?
**A.** The EC50 was 0.306 nM.
